Laboratory results: the NIST ThermoML archive (doi:10.1016/j.fluid.2010.08.004)
Numbers after ± are expanded uncertainties.

Experiment: mn = molality of the nth substance listed, in mol/kg
Details: 101.3 kPa, Liquid; for speed of sound: Single path-length method; for mass density: Vibrating tube method

SMILES: CCCCCCCn1cc[n+](C)c1.[Br-] [1-heptyl-3-methylimidazolium bromide] + O
- speed of sound (288.15 K, m1 = 0.0096): 1468.2 ± 0.45 m/s
- speed of sound (288.15 K, m1 = 0.0113): 1468.5 ± 0.45 m/s
- speed of sound (288.15 K, m1 = 0.0151): 1469.1 ± 0.45 m/s
- speed of sound (288.15 K, m1 = 0.0226): 1470.4 ± 0.45 m/s
- speed of sound (288.15 K, m1 = 0.0306): 1471.8 ± 0.46 m/s
- speed of sound (288.15 K, m1 = 0.0384): 1472.9 ± 0.46 m/s
- speed of sound (288.15 K, m1 = 0.0571): 1476.1 ± 0.46 m/s
- speed of sound (288.15 K, m1 = 0.0778): 1479.3 ± 0.47 m/s
- speed of sound (288.15 K, m1 = 0.097): 1482.3 ± 0.47 m/s
- speed of sound (288.15 K, m1 = 0.1158): 1485.2 ± 0.47 m/s
- speed of sound (288.15 K, m1 = 0.1383): 1488.7 ± 0.48 m/s
- speed of sound (288.15 K, m1 = 0.1566): 1491.5 ± 0.48 m/s
- speed of sound (288.15 K, m1 = 0.174): 1494 ± 0.49 m/s
- mass density (288.15 K, m1 = 0.0096): 999.568 ± 0.041 kg/m3
- mass density (288.15 K, m1 = 0.0113): 999.656 ± 0.041 kg/m3
- mass density (288.15 K, m1 = 0.0151): 999.839 ± 0.041 kg/m3
- mass density (288.15 K, m1 = 0.0226): 1000.2 ± 0.041 kg/m3
- mass density (288.15 K, m1 = 0.0306): 1000.59 ± 0.041 kg/m3
- mass density (288.15 K, m1 = 0.0384): 1000.96 ± 0.042 kg/m3
- mass density (288.15 K, m1 = 0.0571): 1001.85 ± 0.043 kg/m3
- mass density (288.15 K, m1 = 0.0778): 1002.84 ± 0.044 kg/m3
- mass density (288.15 K, m1 = 0.097): 1003.74 ± 0.045 kg/m3
- mass density (288.15 K, m1 = 0.1158): 1004.62 ± 0.046 kg/m3
- mass density (288.15 K, m1 = 0.1383): 1005.67 ± 0.048 kg/m3
- mass density (288.15 K, m1 = 0.1566): 1006.51 ± 0.049 kg/m3
- mass density (288.15 K, m1 = 0.174): 1007.32 ± 0.05 kg/m3
- speed of sound (293.15 K, m1 = 0.0096): 1484.2 ± 0.46 m/s
- speed of sound (293.15 K, m1 = 0.0113): 1484.4 ± 0.45 m/s
- speed of sound (293.15 K, m1 = 0.0151): 1485 ± 0.45 m/s
- speed of sound (293.15 K, m1 = 0.0226): 1486.1 ± 0.45 m/s
- speed of sound (293.15 K, m1 = 0.0306): 1487.3 ± 0.45 m/s
- speed of sound (293.15 K, m1 = 0.0384): 1488.5 ± 0.46 m/s
- speed of sound (293.15 K, m1 = 0.0571): 1491.2 ± 0.46 m/s
- speed of sound (293.15 K, m1 = 0.0778): 1494.3 ± 0.47 m/s
- speed of sound (293.15 K, m1 = 0.097): 1497 ± 0.47 m/s
- speed of sound (293.15 K, m1 = 0.1158): 1499.7 ± 0.47 m/s
- speed of sound (293.15 K, m1 = 0.1383): 1502.8 ± 0.48 m/s
- speed of sound (293.15 K, m1 = 0.1566): 1505.3 ± 0.48 m/s
- speed of sound (293.15 K, m1 = 0.174): 1507.6 ± 0.49 m/s
- mass density (293.15 K, m1 = 0.0096): 998.662 ± 0.045 kg/m3
- mass density (293.15 K, m1 = 0.0113): 998.746 ± 0.041 kg/m3
- mass density (293.15 K, m1 = 0.0151): 998.926 ± 0.041 kg/m3
- mass density (293.15 K, m1 = 0.0226): 999.279 ± 0.041 kg/m3
- mass density (293.15 K, m1 = 0.0306): 999.656 ± 0.041 kg/m3
- mass density (293.15 K, m1 = 0.0384): 1000.03 ± 0.041 kg/m3
- mass density (293.15 K, m1 = 0.0571): 1000.9 ± 0.042 kg/m3
- mass density (293.15 K, m1 = 0.0778): 1001.86 ± 0.044 kg/m3
- mass density (293.15 K, m1 = 0.097): 1002.74 ± 0.045 kg/m3
- mass density (293.15 K, m1 = 0.1158): 1003.6 ± 0.046 kg/m3
- mass density (293.15 K, m1 = 0.1383): 1004.63 ± 0.047 kg/m3
- mass density (293.15 K, m1 = 0.1566): 1005.45 ± 0.048 kg/m3
- mass density (293.15 K, m1 = 0.174): 1006.24 ± 0.049 kg/m3
- speed of sound (298.15 K, m1 = 0.0096): 1498.3 ± 0.46 m/s
- speed of sound (298.15 K, m1 = 0.0113): 1498.5 ± 0.45 m/s
- speed of sound (298.15 K, m1 = 0.0151): 1499 ± 0.45 m/s
- speed of sound (298.15 K, m1 = 0.0226): 1500.1 ± 0.45 m/s
- speed of sound (298.15 K, m1 = 0.0306): 1501.2 ± 0.45 m/s
- speed of sound (298.15 K, m1 = 0.0384): 1502.2 ± 0.46 m/s
- speed of sound (298.15 K, m1 = 0.0571): 1504.7 ± 0.46 m/s
- speed of sound (298.15 K, m1 = 0.0778): 1507.5 ± 0.47 m/s
- speed of sound (298.15 K, m1 = 0.097): 1509.9 ± 0.47 m/s
- speed of sound (298.15 K, m1 = 0.1158): 1512.3 ± 0.47 m/s
- speed of sound (298.15 K, m1 = 0.1383): 1515.2 ± 0.48 m/s
- speed of sound (298.15 K, m1 = 0.1566): 1517.4 ± 0.48 m/s
- speed of sound (298.15 K, m1 = 0.174): 1519.5 ± 0.49 m/s
- mass density (298.15 K, m1 = 0.0096): 997.491 ± 0.044 kg/m3
- mass density (298.15 K, m1 = 0.0113): 997.574 ± 0.041 kg/m3
- mass density (298.15 K, m1 = 0.0151): 997.75 ± 0.041 kg/m3
- mass density (298.15 K, m1 = 0.0226): 998.097 ± 0.041 kg/m3
- mass density (298.15 K, m1 = 0.0306): 998.464 ± 0.042 kg/m3
- mass density (298.15 K, m1 = 0.0384): 998.827 ± 0.042 kg/m3
- mass density (298.15 K, m1 = 0.0571): 999.682 ± 0.042 kg/m3
- mass density (298.15 K, m1 = 0.0778): 1000.62 ± 0.043 kg/m3
- mass density (298.15 K, m1 = 0.097): 1001.49 ± 0.044 kg/m3
- mass density (298.15 K, m1 = 0.1158): 1002.33 ± 0.045 kg/m3
- mass density (298.15 K, m1 = 0.1383): 1003.34 ± 0.047 kg/m3
- mass density (298.15 K, m1 = 0.1566): 1004.14 ± 0.048 kg/m3
- mass density (298.15 K, m1 = 0.174): 1004.91 ± 0.049 kg/m3
- speed of sound (303.15 K, m1 = 0.0096): 1510.5 ± 0.46 m/s
- speed of sound (303.15 K, m1 = 0.0113): 1510.8 ± 0.45 m/s
- speed of sound (303.15 K, m1 = 0.0151): 1511.2 ± 0.45 m/s
- speed of sound (303.15 K, m1 = 0.0226): 1512.2 ± 0.45 m/s
- speed of sound (303.15 K, m1 = 0.0306): 1513.1 ± 0.45 m/s
- speed of sound (303.15 K, m1 = 0.0384): 1514.1 ± 0.46 m/s
- speed of sound (303.15 K, m1 = 0.0571): 1516.3 ± 0.46 m/s
- speed of sound (303.15 K, m1 = 0.0778): 1518.9 ± 0.47 m/s
- speed of sound (303.15 K, m1 = 0.097): 1521.1 ± 0.47 m/s
- speed of sound (303.15 K, m1 = 0.1158): 1523.3 ± 0.47 m/s
- speed of sound (303.15 K, m1 = 0.1383): 1525.8 ± 0.48 m/s
- speed of sound (303.15 K, m1 = 0.1566): 1527.9 ± 0.48 m/s
- speed of sound (303.15 K, m1 = 0.174): 1529.8 ± 0.49 m/s
- mass density (303.15 K, m1 = 0.0096): 996.083 ± 0.044 kg/m3
- mass density (303.15 K, m1 = 0.0113): 996.165 ± 0.042 kg/m3
- mass density (303.15 K, m1 = 0.0151): 996.337 ± 0.042 kg/m3
- mass density (303.15 K, m1 = 0.0226): 996.677 ± 0.042 kg/m3
- mass density (303.15 K, m1 = 0.0306): 997.04 ± 0.042 kg/m3
- mass density (303.15 K, m1 = 0.0384): 997.395 ± 0.042 kg/m3
- mass density (303.15 K, m1 = 0.0571): 998.23 ± 0.043 kg/m3
- mass density (303.15 K, m1 = 0.0778): 999.158 ± 0.043 kg/m3
- mass density (303.15 K, m1 = 0.097): 1000.01 ± 0.044 kg/m3
- mass density (303.15 K, m1 = 0.1158): 1000.83 ± 0.045 kg/m3
- mass density (303.15 K, m1 = 0.1383): 1001.81 ± 0.046 kg/m3
- mass density (303.15 K, m1 = 0.1566): 1002.6 ± 0.047 kg/m3
- mass density (303.15 K, m1 = 0.174): 1003.35 ± 0.048 kg/m3
- speed of sound (308.15 K, m1 = 0.0096): 1521.1 ± 0.45 m/s
- speed of sound (308.15 K, m1 = 0.0113): 1521.3 ± 0.45 m/s
- speed of sound (308.15 K, m1 = 0.0151): 1521.7 ± 0.45 m/s
- speed of sound (308.15 K, m1 = 0.0226): 1522.6 ± 0.45 m/s
- speed of sound (308.15 K, m1 = 0.0306): 1523.5 ± 0.45 m/s
- speed of sound (308.15 K, m1 = 0.0384): 1524.4 ± 0.46 m/s
- speed of sound (308.15 K, m1 = 0.0571): 1526.4 ± 0.46 m/s
- speed of sound (308.15 K, m1 = 0.0778): 1528.6 ± 0.46 m/s
- speed of sound (308.15 K, m1 = 0.097): 1530.7 ± 0.47 m/s
- speed of sound (308.15 K, m1 = 0.1158): 1532.6 ± 0.47 m/s
- speed of sound (308.15 K, m1 = 0.1383): 1534.9 ± 0.48 m/s
- speed of sound (308.15 K, m1 = 0.1566): 1536.7 ± 0.48 m/s
- speed of sound (308.15 K, m1 = 0.174): 1538.4 ± 0.49 m/s
- mass density (308.15 K, m1 = 0.0096): 994.457 ± 0.042 kg/m3
- mass density (308.15 K, m1 = 0.0113): 994.539 ± 0.042 kg/m3
- mass density (308.15 K, m1 = 0.0151): 994.708 ± 0.042 kg/m3
- mass density (308.15 K, m1 = 0.0226): 995.043 ± 0.042 kg/m3
- mass density (308.15 K, m1 = 0.0306): 995.398 ± 0.043 kg/m3
- mass density (308.15 K, m1 = 0.0384): 995.747 ± 0.043 kg/m3
- mass density (308.15 K, m1 = 0.0571): 996.569 ± 0.043 kg/m3
- mass density (308.15 K, m1 = 0.0778): 997.477 ± 0.044 kg/m3
- mass density (308.15 K, m1 = 0.097): 998.309 ± 0.044 kg/m3
- mass density (308.15 K, m1 = 0.1158): 999.119 ± 0.045 kg/m3
- mass density (308.15 K, m1 = 0.1383): 1000.08 ± 0.045 kg/m3
- mass density (308.15 K, m1 = 0.1566): 1000.86 ± 0.046 kg/m3
- mass density (308.15 K, m1 = 0.174): 1001.6 ± 0.048 kg/m3
